According to PMC4728608, “A Cell-Penetrating Peptide with a Guanidinylethyl Amine Structure Directed to Gene Delivery” (Scientific Reports, 2016):
Like-named read-outs stand apart in the source and are kept apart here. One block for each compound: values may come before it.

Assays:
[1] = cited from earlier work
From the text: The unnatural amino acid described herein was a lysine (Lys) derivative with a guanidinylethyl (GEt) group in the side chain amine [Lys(GEt)] (Fig. 1).

[2] = Potentiometric titration of model compounds; settings: for protonation degree α at pH 5.5 / protonation degree α at pH 7.4: 100 mM amine and/or guanidine in 100 mM HCl titrated with 100 mM NaOH
Protocol: 1-Ethylamino-2-guanidinylethane hydrochloride, a model compound for Lys(GEt), was synthesized according to Supplementary Scheme S3 in order to clarify the protonation degree of the GEt amine structure within a range from pH 3 to pH 13. […] The monoprotonate state was a major form of the AEt amine structure at neutral pH. […] The GEt amine structure took the diprotonated form even at neutral pH, as expected.
N-Ethylethylenediamine hydrochloride (80.5 mg, 0.5 mmol) and 1-ethylamino-2-guanidinylethane hydrochloride (101.5 mg, 0.5 mmol) were separately dissolved in 100 mM HCl (10 mL) to obtain a solution with 100 mM amine and/or guanidine, and then titrated with 100 mM NaOH at 20 °C. Potentiometric titration was performed with a pH meter D-52 (Horiba, Kyoto, Japan). In this experiment, the titrant was added in quantities of 100 μL after the pH values were stabilized.

[3] = potentiometric titration, 20 °C
[4] = potentiometric titration, 100 mM in 100 mM HCl titrated with 100 mM NaOH, 20 °C

SMILES: NCCNCCN [diethylenetriamine]
pKa of protonated secondary amine [1]: 3.9

SMILES: NCCCC[C@H](N)C(=O)O [Lys, lysine]
pKa of protonated side chain (guanidine of Arg, primary amine of Lys) [1]: 10.2

SMILES: CCNCCN.Cl [N-Ethylethylenediamine hydrochloride]
protonation degree α at pH 5.5 [2, 3]: 0.97
protonation degree α at pH 7.4 [2, 3]: 0.66
pKa1 [2, 4]: 7.1
pKa2 [2, 4]: 10.3

pKa1 [2]: 8.8
pKa2 [2]: 12.0
protonation degree α at pH 5.5 [2, 3]: 0.99
protonation degree α at pH 7.4 [2, 3]: 0.96
SMILES: CCNCCNC(=N)N.Cl [model compound for Lys(GEt), 1-Ethylamino-2-guanidinylethane hydrochloride]
